Patent EP2210885A1, “Substituted heteroarylpiperidine derivatives as melanocortin-4 receptor modulators” (Santhera Pharmaceuticals (Schweiz) AG, priority 2009, dated 2010)

Experiments:
hMC-4R [1] = biological target: T1, hMC-4R (Homo sapiens, UniProt P32245); assay: hMC-4R functional assay (membrane based cAMP fluorescence polarization, agonistic activity); format: biochemical; details: cAMP produced compared to stimulation with NDP-alpha-MSH
T1 construct: expressed in transfected cells; host or cells: HEK293 cell membrane preparations
Experimental: Agonistic activity of human melanocortin receptors is determined in a homogeneous membrane based assay.
The test compound or unlabeled NDP-alpha-MSH is dispensed at varying concentrations to a 384 well microtiter plate. Membrane preparations from HEK293 cells expressing the human melanocortin receptors are added. After a short preincubation period, an appropriate amount of ATP, GTP and the cAMP antibody is added and the plate is further incubated before the fluorescence labeled cAMP conjugate is dispensed. The plate is incubated for 2 h at 4°C before it is read on a fluorescence polarization microplate reader. The amount of cAMP produced as a response to a test compound is compared to the production of cAMP resulting from stimulation with NDP-alpha-MSH.

hMC-4R [2] = biological target: T1, hMC-4R; assay: hMC-4R membrane binding assay (fluorescence polarization, competition with fluorescence labeled NDP-alpha-MSH); details: HEK293 cell membrane preparations expressing human melanocortin receptors; values grouped in classes
Experimental: A membrane binding assay is used to identify competitive inhibitors of fluorescence labeled NDP-alpha-MSH binding to HEK293 cell membrane preparations expressing human melanocortin receptors.
The test compound or unlabeled NDP-alpha-MSH is dispensed at varying concentrations to a 384 well microtiter plate. Fluorescence labeled NDP-alpha-MSH is dispensed at a single concentration, followed by addition of membrane preparations. The plate is incubated for 5 h at room temperature.
The degree of fluorescence polarization is determined with a fluorescence polarization microplate reader.

T1 sequence (P32245 whole entry): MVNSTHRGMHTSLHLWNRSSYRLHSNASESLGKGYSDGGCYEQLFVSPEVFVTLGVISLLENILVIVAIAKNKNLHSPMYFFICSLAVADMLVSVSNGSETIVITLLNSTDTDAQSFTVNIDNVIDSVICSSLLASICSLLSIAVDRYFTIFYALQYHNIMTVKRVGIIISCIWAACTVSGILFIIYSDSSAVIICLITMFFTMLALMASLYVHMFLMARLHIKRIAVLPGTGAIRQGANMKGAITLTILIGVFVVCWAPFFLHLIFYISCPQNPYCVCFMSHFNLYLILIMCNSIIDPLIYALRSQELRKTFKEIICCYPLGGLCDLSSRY

| % activation functional assay (hMC-4R [1]) | IC50 (hMC-4R [2]) | Structure (SMILES) |
| --- | --- | --- |
| 4% | ≤ 0.1 µM | CCC(COc1cccnc1C1CCN(C(=O)C(Cc2ccc(Cl)cc2Cl)NC(=O)OC(C)C)CC1)N(C)C (stereo not drawn) [Example 2] |
| 0% | 0.1 to 1 µM | CC[C@H](COc1cccnc1C1CCN(C(=O)[C@@H](Cc2ccc(Cl)cc2Cl)NC(=O)OC2CCCC2)CC1)N(C)C [Example 3] |

| Structure (SMILES) | % activation functional assay (hMC-4R [1]) | IC50 (hMC-4R [2]) |
| --- | --- | --- |
| CCOC(=O)N[C@H](Cc1ccc(Cl)cc1Cl)C(=O)N1CCC(c2ncccc2OC[C@@H](CC)N(C)C)CC1 [Example 1] | -6% | ≤ 0.1 µM |
